This is an account of results in ChEMBL document CHEMBL4418489, “FTO inhibitors” (2018).

For one experiment, the species on record is Homo sapiens. In words: Selectivity index, ratio of IC50 for COMT (unknown origin) (test compound)/IC50 for FTO (unknown origin) (test compound) to IC50 for COMT (entacapone)/IC50 for FTO (entacapone).
Experiment [1] concerns the target Alpha-ketoglutarate-dependent dioxygenase FTO (Homo sapiens, UniProt Q9C0B1). In words: Inhibition of FTO (unknown origin) assessed as reduction in demethylation by measuring N6-mA and A level incubated for 2 hrs by HPLC-MS/MS analysis.

Structures are written as SMILES.

Sequence of Alpha-ketoglutarate-dependent dioxygenase FTO (Q9C0B1 whole entry): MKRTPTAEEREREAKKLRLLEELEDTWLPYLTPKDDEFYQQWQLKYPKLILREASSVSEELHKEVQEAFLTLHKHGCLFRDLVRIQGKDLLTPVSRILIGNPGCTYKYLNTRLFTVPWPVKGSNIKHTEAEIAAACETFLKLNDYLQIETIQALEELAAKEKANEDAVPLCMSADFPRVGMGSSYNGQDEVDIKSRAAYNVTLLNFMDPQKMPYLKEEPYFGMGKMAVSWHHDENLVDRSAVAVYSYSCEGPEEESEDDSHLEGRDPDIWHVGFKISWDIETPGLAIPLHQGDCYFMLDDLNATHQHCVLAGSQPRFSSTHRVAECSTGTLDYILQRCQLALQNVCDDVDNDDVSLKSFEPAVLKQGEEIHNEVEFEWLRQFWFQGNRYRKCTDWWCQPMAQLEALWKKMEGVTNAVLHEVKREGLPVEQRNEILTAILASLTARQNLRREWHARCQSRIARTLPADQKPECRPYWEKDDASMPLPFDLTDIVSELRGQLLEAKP

As to `N#C/C(=C\c1cc(O)c(O)c([N+](=O)[O-])c1)C(=O)N1CCC1`, in the experiment filed under Homo sapiens, the Ratio IC50 was determined as 1.65. With `CCN(CC)C(=O)/C(C#N)=C/c1cc(O)c(O)c([N+](=O)[O-])c1` [ENTACAPONE], the IC50 (usually the concentration needed to halve the response being measured) in experiment [1] was determined as 3 µM.
